This passage reports % of control, pXC50 and % of inhibition results from ChEMBL document CHEMBL5465560, “Selectivity Literature for EUbOPEN Chemogenomic Library” (2024).

Test [1] has as its target Calcium/calmodulin-dependent protein kinase type II subunit delta (Homo sapiens) (UniProt Q13557). Put plainly: Selectivity interaction (KinomeScan (DiscoverX)) EUB0001049a CAMK2D. The settings on record: at 1 µM.
For test [2], the target named is T1, Inhibitor of nuclear factor kappa-B kinase subunit epsilon (Homo sapiens) (UniProt Q14164).
T1 sequence (whole entry): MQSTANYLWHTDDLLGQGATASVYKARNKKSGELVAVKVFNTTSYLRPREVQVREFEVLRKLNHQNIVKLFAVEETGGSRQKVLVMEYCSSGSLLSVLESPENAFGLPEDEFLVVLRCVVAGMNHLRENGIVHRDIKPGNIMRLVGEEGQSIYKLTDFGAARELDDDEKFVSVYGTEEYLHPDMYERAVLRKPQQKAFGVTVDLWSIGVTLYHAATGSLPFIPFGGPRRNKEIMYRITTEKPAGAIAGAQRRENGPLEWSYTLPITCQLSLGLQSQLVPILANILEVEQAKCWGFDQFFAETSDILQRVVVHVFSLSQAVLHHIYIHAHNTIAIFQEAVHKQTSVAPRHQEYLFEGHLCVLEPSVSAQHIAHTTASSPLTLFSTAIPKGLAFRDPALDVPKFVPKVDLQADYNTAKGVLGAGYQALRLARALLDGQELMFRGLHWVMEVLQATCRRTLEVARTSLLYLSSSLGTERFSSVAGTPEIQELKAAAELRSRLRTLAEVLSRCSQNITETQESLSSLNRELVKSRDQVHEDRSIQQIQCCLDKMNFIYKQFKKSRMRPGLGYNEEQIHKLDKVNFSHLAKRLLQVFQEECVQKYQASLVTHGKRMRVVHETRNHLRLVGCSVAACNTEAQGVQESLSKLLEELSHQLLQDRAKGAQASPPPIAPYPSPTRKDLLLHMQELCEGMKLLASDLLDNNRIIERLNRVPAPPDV
As to the kind of experiment: Selectivity interaction (KinomeScan (DiscoverX)) EUB0001049a IKBKE. The settings on record: at 1 µM.

Test [3] has as its target Acetylcholine receptor subunit alpha (Homo sapiens, UniProt P02708). As to the kind of experiment: Selectivity interaction (Panel of kinases, GPCRs, ion channels and transporters (enzymatic assay)) EUB0000223bCl CHRNA1.
The target in test [4] is CDK18/Cyclin Y (Homo sapiens) (UniProt Q07002+Q8ND76). Put plainly: Selectivity interaction (Kinase panel (Z-LYTE Assay)) EUB0001632a CDK18. Type of test: protein-complex assay. The settings on record: at 10 µM.
Test [5] deals with T2, Tyrosine-protein kinase ITK/TSK (Homo sapiens) (UniProt Q08881).
T2 sequence (whole entry): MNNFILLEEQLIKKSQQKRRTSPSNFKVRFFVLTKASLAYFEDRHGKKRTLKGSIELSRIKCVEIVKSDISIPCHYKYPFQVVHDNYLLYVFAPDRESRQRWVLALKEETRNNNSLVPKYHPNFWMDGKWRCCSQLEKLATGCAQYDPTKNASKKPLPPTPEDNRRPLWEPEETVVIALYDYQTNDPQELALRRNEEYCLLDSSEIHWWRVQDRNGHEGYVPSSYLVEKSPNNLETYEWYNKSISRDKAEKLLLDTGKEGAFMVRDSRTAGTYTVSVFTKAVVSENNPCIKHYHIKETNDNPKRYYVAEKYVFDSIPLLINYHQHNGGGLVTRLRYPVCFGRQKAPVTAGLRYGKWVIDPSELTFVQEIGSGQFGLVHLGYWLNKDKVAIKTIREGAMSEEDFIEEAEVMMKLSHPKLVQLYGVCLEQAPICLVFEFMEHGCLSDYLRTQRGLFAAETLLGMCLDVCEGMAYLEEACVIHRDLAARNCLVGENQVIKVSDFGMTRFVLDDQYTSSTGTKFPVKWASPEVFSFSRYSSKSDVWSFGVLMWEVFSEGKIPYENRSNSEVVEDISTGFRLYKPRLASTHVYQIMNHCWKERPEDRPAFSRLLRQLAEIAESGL
Put plainly: Selectivity interaction (KinomeScan (DiscoverX)) EUB0000607a ITK. The settings on record: at 10 µM.

In test [6] the target is Ephrin type-A receptor 4 (Homo sapiens, UniProt P54764). As to the kind of experiment: Selectivity interaction (Kinase panel (Invitrogen)) EUB0000639a EPHA4. The settings on record: at 200 nM.
In test [7] the target is Tyrosine-protein kinase Lyn (Homo sapiens, UniProt P07948). Put plainly: Selectivity interaction (ActivX KiNativ screen (kinase selectivity in THP-1 cell lysates)) EUB0000639a LYN. Type of test: subcellular. As to conditions: lysate, at 5 µM.
The target in test [8] is Serine/threonine-protein kinase 10 (Homo sapiens) (UniProt O94804). As to the kind of experiment: Selectivity interaction (ActivX KiNativ screen (kinase selectivity in THP-1 cell lysates)) EUB0000639a STK10. The test is classed as subcellular. The settings on record: lysate.
In test [9] the target is Phosphatidylinositol 4,5-bisphosphate 3-kinase catalytic subunit alpha isoform (Homo sapiens) (UniProt P42336). As to the kind of experiment: (§1) Selectivity interaction (KinomeScan (DiscoverX)) EUB0000618a PIK3CA. The settings on record: at 10 µM.
Test [10] concerns Phosphatidylinositol 4,5-bisphosphate 3-kinase catalytic subunit alpha isoform (Homo sapiens), P42336 [C420R]. The description is as §1. As to conditions: at 10 µM.
The subject of test [11] is Phosphatidylinositol 4,5-bisphosphate 3-kinase catalytic subunit alpha isoform (Homo sapiens), P42336 [E542K]. The test is described as §1. The settings on record: at 10 µM.
In test [12] the test system is Phosphatidylinositol 4,5-bisphosphate 3-kinase catalytic subunit alpha isoform (Homo sapiens), P42336 [E545A]. Described as §1. As to conditions: at 10 µM.
Test [13] relates to Phosphatidylinositol 4,5-bisphosphate 3-kinase catalytic subunit alpha isoform (Homo sapiens), P42336 [E545K]. The description is as §1. The settings on record: at 10 µM.
In test [14] the test system is Phosphatidylinositol 4,5-bisphosphate 3-kinase catalytic subunit alpha isoform (Homo sapiens), P42336 [H1047L]. The description is as §1. The settings on record: at 10 µM.
Test [15] deals with Phosphatidylinositol 4,5-bisphosphate 3-kinase catalytic subunit alpha isoform (Homo sapiens), P42336 [H1047Y]. The description is as §1. The settings on record: at 10 µM.
Test [16] concerns Phosphatidylinositol 4,5-bisphosphate 3-kinase catalytic subunit alpha isoform (Homo sapiens), P42336 [M1043I]. The description is as §1. The settings on record: at 10 µM.
In test [17] the test system is Phosphatidylinositol 4,5-bisphosphate 3-kinase catalytic subunit alpha isoform (Homo sapiens), P42336 [Q546K]. The test is described as §1. As to conditions: at 10 µM.

Serine/threonine-protein kinase 10 (Homo sapiens), sequence (O94804 whole entry, looked up, canonical isoform): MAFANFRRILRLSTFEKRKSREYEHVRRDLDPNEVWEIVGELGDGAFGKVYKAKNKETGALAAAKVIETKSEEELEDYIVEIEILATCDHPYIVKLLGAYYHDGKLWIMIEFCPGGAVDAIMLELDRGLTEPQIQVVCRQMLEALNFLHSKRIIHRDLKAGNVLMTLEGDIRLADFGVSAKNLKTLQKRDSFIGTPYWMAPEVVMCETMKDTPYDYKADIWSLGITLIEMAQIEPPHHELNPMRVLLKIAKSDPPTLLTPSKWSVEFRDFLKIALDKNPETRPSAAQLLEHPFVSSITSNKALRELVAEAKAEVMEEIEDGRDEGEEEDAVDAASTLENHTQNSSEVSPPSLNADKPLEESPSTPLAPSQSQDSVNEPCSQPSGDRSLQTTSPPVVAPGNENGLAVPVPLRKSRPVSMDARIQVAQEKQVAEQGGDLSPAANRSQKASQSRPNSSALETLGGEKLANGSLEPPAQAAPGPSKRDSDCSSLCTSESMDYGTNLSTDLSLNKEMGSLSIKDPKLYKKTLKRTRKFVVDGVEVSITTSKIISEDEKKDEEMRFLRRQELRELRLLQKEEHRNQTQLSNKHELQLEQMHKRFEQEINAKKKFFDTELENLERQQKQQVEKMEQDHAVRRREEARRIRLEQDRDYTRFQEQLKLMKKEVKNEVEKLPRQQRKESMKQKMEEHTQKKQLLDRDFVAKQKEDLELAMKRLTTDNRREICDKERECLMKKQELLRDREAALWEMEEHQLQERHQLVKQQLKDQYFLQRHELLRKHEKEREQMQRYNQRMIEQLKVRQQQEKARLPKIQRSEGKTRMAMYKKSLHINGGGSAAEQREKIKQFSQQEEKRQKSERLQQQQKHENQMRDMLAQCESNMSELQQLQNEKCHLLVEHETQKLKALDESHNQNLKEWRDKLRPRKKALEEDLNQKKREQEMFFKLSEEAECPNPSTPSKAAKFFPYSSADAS
Acetylcholine receptor subunit alpha, sequence (P02708 whole entry): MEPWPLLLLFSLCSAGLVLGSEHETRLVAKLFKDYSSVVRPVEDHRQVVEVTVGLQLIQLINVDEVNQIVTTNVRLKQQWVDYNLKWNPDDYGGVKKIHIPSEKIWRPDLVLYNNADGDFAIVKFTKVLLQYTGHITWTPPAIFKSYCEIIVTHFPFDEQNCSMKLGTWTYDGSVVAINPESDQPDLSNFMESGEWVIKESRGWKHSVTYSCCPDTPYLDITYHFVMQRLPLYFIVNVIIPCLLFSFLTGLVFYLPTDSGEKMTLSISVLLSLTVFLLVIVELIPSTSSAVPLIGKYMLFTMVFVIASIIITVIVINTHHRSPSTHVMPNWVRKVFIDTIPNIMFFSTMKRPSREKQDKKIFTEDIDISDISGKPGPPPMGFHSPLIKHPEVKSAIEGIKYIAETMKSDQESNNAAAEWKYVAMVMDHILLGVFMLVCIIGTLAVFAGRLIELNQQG
Phosphatidylinositol 4,5-bisphosphate 3-kinase catalytic subunit alpha isoform (Homo sapiens), P42336 [M1043I], sequence (P42336 whole entry M1043I, canonical isoform): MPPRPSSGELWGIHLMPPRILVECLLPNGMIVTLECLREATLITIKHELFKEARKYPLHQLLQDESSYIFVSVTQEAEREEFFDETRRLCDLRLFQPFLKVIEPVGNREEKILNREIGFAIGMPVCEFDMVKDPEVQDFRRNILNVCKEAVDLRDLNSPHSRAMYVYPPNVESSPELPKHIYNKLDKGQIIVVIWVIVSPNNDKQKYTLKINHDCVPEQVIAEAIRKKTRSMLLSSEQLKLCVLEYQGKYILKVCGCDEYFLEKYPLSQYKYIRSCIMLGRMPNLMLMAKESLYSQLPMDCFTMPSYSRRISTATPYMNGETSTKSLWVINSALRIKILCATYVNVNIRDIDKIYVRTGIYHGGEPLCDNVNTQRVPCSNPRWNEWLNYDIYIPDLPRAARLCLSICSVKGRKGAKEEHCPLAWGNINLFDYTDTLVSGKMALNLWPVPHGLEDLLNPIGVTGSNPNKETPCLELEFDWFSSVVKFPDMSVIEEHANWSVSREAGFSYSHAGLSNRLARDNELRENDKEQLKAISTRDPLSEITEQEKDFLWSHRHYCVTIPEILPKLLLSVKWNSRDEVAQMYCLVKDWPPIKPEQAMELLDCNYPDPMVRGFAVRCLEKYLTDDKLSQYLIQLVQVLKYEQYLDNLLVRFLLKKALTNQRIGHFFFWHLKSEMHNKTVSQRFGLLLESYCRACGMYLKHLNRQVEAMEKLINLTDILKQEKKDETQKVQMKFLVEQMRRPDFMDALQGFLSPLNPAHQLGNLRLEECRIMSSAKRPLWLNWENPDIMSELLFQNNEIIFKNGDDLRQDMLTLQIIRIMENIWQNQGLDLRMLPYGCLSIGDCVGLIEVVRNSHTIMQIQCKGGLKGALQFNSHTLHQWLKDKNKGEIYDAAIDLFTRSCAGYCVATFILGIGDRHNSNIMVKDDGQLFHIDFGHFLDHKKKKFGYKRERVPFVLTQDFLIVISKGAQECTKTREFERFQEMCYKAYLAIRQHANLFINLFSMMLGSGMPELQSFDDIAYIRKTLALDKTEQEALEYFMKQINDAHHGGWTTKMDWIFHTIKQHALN
Tyrosine-protein kinase Lyn, sequence (P07948 2-512 limits assumed): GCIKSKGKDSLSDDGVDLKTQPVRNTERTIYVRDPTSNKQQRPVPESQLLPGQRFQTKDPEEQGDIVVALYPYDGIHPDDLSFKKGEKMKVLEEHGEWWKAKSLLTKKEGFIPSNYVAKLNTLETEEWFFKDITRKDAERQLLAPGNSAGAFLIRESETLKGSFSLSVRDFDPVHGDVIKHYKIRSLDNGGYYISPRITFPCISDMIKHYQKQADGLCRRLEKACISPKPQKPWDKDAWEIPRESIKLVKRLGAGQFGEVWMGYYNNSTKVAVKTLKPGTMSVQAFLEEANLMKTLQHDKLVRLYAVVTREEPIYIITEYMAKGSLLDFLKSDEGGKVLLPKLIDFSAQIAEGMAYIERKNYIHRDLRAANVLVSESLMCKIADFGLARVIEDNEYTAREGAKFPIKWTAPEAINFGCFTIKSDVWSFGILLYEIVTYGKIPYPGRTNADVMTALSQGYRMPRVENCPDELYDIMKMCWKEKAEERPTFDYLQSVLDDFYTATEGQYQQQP
Calcium/calmodulin-dependent protein kinase type II subunit delta (Homo sapiens), sequence (Q13557 whole entry): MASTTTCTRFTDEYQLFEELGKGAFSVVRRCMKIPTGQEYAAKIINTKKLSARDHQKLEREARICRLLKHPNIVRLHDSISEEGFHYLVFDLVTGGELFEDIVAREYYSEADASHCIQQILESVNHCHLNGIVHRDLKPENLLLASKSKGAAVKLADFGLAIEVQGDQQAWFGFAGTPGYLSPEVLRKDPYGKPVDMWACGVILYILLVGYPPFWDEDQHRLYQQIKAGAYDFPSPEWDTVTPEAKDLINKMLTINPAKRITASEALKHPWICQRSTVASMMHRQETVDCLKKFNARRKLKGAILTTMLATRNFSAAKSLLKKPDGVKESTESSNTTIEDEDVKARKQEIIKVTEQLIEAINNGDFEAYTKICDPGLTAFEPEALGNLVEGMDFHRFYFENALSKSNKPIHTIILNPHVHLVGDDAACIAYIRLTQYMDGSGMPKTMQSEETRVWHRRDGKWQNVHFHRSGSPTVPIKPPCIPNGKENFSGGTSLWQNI
Phosphatidylinositol 4,5-bisphosphate 3-kinase catalytic subunit alpha isoform (Homo sapiens), P42336 [E545K], sequence (P42336 whole entry E545K, canonical isoform): as the sequence (P42336 whole entry M1043I, canonical isoform) above, with E545K, I1043M counted along it

For the compound `COc1cc(Nc2nc(C)cc(-c3cnn4nc(OC)ccc34)n2)cc(C(F)(F)F)c1`, the figures for the % of control in test [1] and in test [2] were 100% and 83%, respectively.

The compound `COc1cc(C(=O)N2CC[C@@H](O)[C@@H](N)C2)cc2nc(-c3cc4ccccc4n3CC3CC3)n(C)c12` came in with a pXC50 in [3] below 4.3 M.

In test [4], `Cn1cc(-n2cnc3c(NCc4nc5cc(Cl)c(Cl)cc5[nH]4)nc(N4CCOCC4)nc32)cn1` returned a % of control of 1.58%.

In test [5], `CNC(=O)Nc1ccc(-c2nc(N3CC4CCC(C3)O4)c3cnn(C4CCC5(CC4)OCCO5)c3n2)cc1` returned a % of control of 88%.

As to `CC[C@@H]1[C@H](F)C(=O)N[C@@H]1COc1nccc2cc(C(N)=O)c(OC)cc12` [ZIMLOVISERTIB], the % of inhibition in test [6] is 6.54%; in test [7], -9.2%; in [8] (at 0.01 µM) it was -11.4%; in test [8] (at 0.04 µM), -6.2%; in test [8] (at 0.2 µM), -5.3%; in [8] (at 1 µM) it was 2.8%. Besides, in test [8] (at 5 µM), the % of inhibition is -12.4%.

For `O[C@H]1CC[C@H](Nc2ncc3nc(Nc4c(F)cc(F)cc4F)n([C@H]4CCOC4)c3n2)CC1`, the % of control in test [9], in [10], in [11], in test [12], in test [13] and in [14] was 100% each time. In addition, the % of control in [15], in test [16] and in test [17] was 100% each time.
